Measurements: EP1710301A1, “L-gulonolactone dehydrogenase of Mycobacterium tuberculosis” (priority 2005, dated 2006)
Where two headings read alike, the source gives them in different places.

Experiments:
[1] = biological target: recombinant GST-tagged L-gulono-1,4-lactone dehydrogenase of Mycobacterium tuberculosis (Mycobacterium tuberculosis, UniProt P9WIT3); conditions: for Enzyme specific activity: substrate 50 mM
[2] = biological target: plant L-galactono-1,4-lactone dehydrogenase (Brassica oleracea, UniProt O47881); conditions: read-out: Km for the L-galactono-1,4-lactone substrate; value reported by Östergaard et al., 1997; cited from earlier work
[3] = system: O=C1O[C@H]([C@@H](O)CO)[C@H](O)[C@@H]1O; assay: purified protein, by the assay type

Sequence of recombinant GST-tagged L-gulono-1,4-lactone dehydrogenase of Mycobacterium tuberculosis (P9WIT3 whole entry): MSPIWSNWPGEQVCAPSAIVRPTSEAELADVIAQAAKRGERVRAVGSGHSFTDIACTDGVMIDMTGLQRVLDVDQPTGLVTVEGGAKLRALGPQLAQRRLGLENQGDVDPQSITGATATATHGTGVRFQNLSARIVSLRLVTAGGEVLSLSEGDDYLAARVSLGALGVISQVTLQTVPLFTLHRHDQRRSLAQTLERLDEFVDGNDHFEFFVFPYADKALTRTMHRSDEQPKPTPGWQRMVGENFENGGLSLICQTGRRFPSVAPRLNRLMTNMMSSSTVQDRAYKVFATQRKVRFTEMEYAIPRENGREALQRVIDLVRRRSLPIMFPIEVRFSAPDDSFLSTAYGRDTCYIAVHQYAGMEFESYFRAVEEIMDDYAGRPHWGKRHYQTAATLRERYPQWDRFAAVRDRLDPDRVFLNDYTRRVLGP
Sequence of plant L-galactono-1,4-lactone dehydrogenase (O47881 92-600): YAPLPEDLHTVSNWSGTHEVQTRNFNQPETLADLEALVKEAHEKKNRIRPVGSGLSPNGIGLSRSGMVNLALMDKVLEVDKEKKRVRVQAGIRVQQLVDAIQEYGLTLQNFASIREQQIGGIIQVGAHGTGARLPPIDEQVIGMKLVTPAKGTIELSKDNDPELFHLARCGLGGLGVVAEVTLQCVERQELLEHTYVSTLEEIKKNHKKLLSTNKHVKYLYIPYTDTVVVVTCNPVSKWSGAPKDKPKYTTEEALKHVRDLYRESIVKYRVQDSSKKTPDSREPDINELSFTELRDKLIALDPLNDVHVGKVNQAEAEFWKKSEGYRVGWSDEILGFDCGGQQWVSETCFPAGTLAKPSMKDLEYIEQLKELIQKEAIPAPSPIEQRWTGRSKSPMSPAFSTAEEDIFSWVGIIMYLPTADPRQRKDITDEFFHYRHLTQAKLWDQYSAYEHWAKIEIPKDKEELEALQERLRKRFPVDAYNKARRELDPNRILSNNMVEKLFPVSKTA

Question: Which results are given for `O=C(O)CN(CCN(CC(=O)O)CC(=O)O)CC(=O)O` [EDTA]?
Answer: Relative activity [1]: 0 % of control; effect on the enzyme activity (in words) [1]: complete inhibition

Question: Which Relative activity ([1]; effector 1 mM) does the source give for `[Ca+2].[Cl-].[Cl-]` [CaCl2] here?
Answer: 91 % of control

Question: Which Enzyme specific activity [1] does the source give for `O=C[C@H](O)[C@H]1OC(=O)[C@@H](O)[C@H]1O` [D-glucurono-3,6-lactone] here?
Answer: 0 mU/mg ofprotein

Question: With `O=C1O[C@H]([C@@H](O)CO)[C@@H](O)[C@@H]1O` [L-galactono-1,4-lactone] as the compound, how does the Enzyme specific activity [1] read?
Answer: 0 mU/mg ofprotein

Question: What about the “activity towards substrate (in words)” value ([1]; substrate specificity) of the same compound?
Answer: no activity

Question: And the Km [2]?
Answer: 3.3 mM

Question: With `[Cl-].[Cl-].[Zn+2]` [ZnCl2] as the compound, how does the Relative activity ([1]; effector 1 mM) read?
Answer: 0 % of control

Question: What about the “effect on the enzyme activity (in words)” value ([1]; effectors, EDTA 1 mM) of the same compound?
Answer: Inhibition

Question: With `[Cl][Cu][Cl]` [CuCl2] as the compound, how does the Relative activity ([1]; effector 1 mM) read?
Answer: 0 % of control

Question: What about the “effect on the enzyme activity (in words)” value ([1]; effectors, EDTA 1 mM) of the same compound?
Answer: Inhibition

Question: With `Cc1cc2nc3c(=O)[nH]c(=O)nc-3n(C[C@H](O)[C@H](O)[C@H](O)COP(=O)(O)OP(=O)(O)OC[C@H]3O[C@@H](n4cnc5c(N)ncnc54)[C@H](O)[C@@H]3O)c2cc1C` [FAD] as the compound, how does the Relative activity ([1]; effector 100 µM) read?
Answer: 94 % of control

Question: What about the “effect on the enzyme activity (in words)” value ([1]; effectors, EDTA 1 mM) of the same compound?
Answer: not affected

Question: With `O=C[C@H](O)[C@@H](O)[C@H](O)CO` [D-xylose] as the compound, how does the Enzyme specific activity [1] read?
Answer: 0 mU/mg ofprotein

Question: For `O=C[C@H](O)[C@@H](O)[C@H](O)[C@H](O)C(=O)O` [D-glucuronic acid], which Enzyme specific activity [1] is on record?
Answer: 0 mU/mg ofprotein

Question: Which Enzyme specific activity [1] does the source give for `O=C1O[C@H]([C@@H](O)CO)[C@H](O)[C@@H]1O` [L-gulono-1,4-lactone] here?
Answer: 66.7 mU/mg ofprotein

Question: For `[Cl][Mn][Cl]` [MnCl2], which Relative activity ([1]; effector 1 mM) is on record?
Answer: 79 % of control

Question: Which Relative activity ([1]; effector 1 mM) does the source give for `[Cl-].[Cl-].[Mg+2]` [MgCl2] here?
Answer: 98 % of control

Question: With `CCN1C(=O)C=CC1=O` [N-ethylmaleimide] as the compound, how does the Relative activity ([1]; effector 1 mM) read?
Answer: 0 % of control

Question: What about the “effect on the enzyme activity (in words)” value ([1]; effectors, EDTA 1 mM) of the same compound?
Answer: Inhibition

Question: With “recombinant GST-tagged L-gulono-1,4-lactone dehydrogenase of Mycobacterium tuberculosis (Mycobacterium tuberculosis H37Rv)” as the compound, how does the Km [3] read?
Answer: 5 mM mM

Question: What about the Vmax [3] of the same compound?
Answer: 2.44µmol·h^-1mg^-1 µmol·h^-1mg^-1

Question: What about the kcat [3] of the same compound?
Answer: 0.033 s^-1 s^-1

Question: And the kcat/Km [3]?
Answer: 0.0065 s^-1·mM^-1 s^-1·mM^-1

Question: With `O=C[C@@H](O)[C@H](O)[C@H](O)CO` [D-arabinose] as the compound, how does the Enzyme specific activity [1] read?
Answer: 0 mU/mg ofprotein
